Data published in US9567347B2, “Use of small molecule inhibitors targeting the interaction between RAC GTPase and p67(phox)” (CHILDREN'S HOSPITAL MEDICAL CENTER, priority 2012, dated 2017).

How the values were obtained:
[1] = system: fMLP-activated primary murine neutrophils; assay: Nitroblue tetrazolium (NBT) assay; format: cell-based, mouse; details: for ROS inhibition (NBT positive cells): 10 μM, FIG. 9
Description: Primary neutrophils from mouse bone marrow were subjected to fMLP stimulation in the presence or absence of various chemicals for 5 min. Cells were stained for NBT activity as previously described in the incorporated materials of Filippi et al. (2004) to reveal relative ROS production.
To complement the DCFDA based FACS analysis and the luminol chemiluminescence method, nitroblue tetrazolium (NBT) assays were performed in fMLP-activated primary murine neutrophils (FIG. 3C).
The NBT assay was performed in primary murine neutrophils to measure ROS neutrophil production. […] Each compound was used at 10 μM.

[2] = system: fMLP-stimulated differentiated HL-60 cells; assay: H2-DCFDA FACS ROS production assay in fMLP-stimulated differentiated HL-60 cells; format: cell-based, human; details: treated 2 hours, FIG. 5B
Description: HL-60 cells were propagated in RPMI 1640 medium containing 10% heat inactivated fetal bovine serum, 2 mM L-glutamine, 100 U/mL penicillin/streptomycin at 37° C. in air containing 5% CO2. For differentiation, HL-60 cells were cultured in 1.3% dimethyl sulfoxide (DMSO) as previously described (Servant, G., et al. (1999) Mol Biol Cell 10, 1163-1178, hereby incorporated by reference in its entirety). Primary murine neutrophils were isolated from C57Bl/6 mouse bone marrow according to a published protocol (Filippi et al., (2004) Nat Immunol 5, 744-751, hereby incorporated by reference in its entirety) using a discontinuous Percoll (Pharmacia) gradient and were utilized immediately in experiments. Human neutrophils were obtained from fresh blood (IRB #2010-1855, Cincinnati Children's Hospital medical Center) following a well established protocol using density gradient separation from whole blood (Oh et al. (2008) J Vis Exp., 17, pii: 745, hereby incorporated by reference in its entirety).
(§1) Cells (5×10^5) were harvested and processed for Annexin V/7AAD staining according to manufacturer's protocol (Becton Dickinson). Flow cytometry data were acquired on a FACS Canto bench-top flow cytometer (Becton Dickinson) and the cell cycle distributions were determined by […] using Flo-Jo software (Bosco et al (2010) Blood 115, 3320-3328, hereby incorporated by reference in its entirety). For ROS production assay, primary murine neutrophils or dHL60 cells were incubated with compound for 2 hours prior to addition of H2-DCFDA according to manufacturer's instructions (Molecular Probes). Cells were then stimulated with 10 μM fMLP (Sigma), 1 mM CaCl2, and 1.5 mM MgCl2 for 15 minutes prior to wash and FACS analysis for mean fluorescence intensity. Non-fMLP stimulated control values were subtracted from all samples before normalization to fMLP-stimulated, vehicle control treated sample in order to display percent ROS inhibition.
To validate the hits from preliminary screening in cells, several cellular functional assays were performed using different cell types to measure the effect of compounds on inhibition of ROS production. ROS levels were first analyzed by fluorescence-activated cell sorting (FACS) in HL-60 pre-incubated with compounds for 2 hr prior to stimulation of ROS production. The p67^phox inhibitor, Phox-I1, was tested against NAC (a ROS scavenger), DPI (a broad range inhibitor of NADPH oxidase), and NSC23766 (a Rac-GTP inhibitor; FIG. 2A). […] H2O2 added to the cells was included as a positive control for ROS measurement. Second, to test the capacity of Phox-I1 to inhibit ROS production in a primary cell context, primary murine neutrophils isolated from mouse bone marrow were treated with increasing concentrations of Phox-I1 and the efficacy of inhibition of fMLP-stimulated ROS production was analyzed. DPI treatment was included as a positive control for inhibition of ROS production (FIG. 2B). […] Next, to ascertain the optimal effective dose for ROS inhibition in cells, a dose titration series of Phox-I1 was administered to dHL-60 cells (FIG. 2C).

LPS-induced ALI in mice = details: 5 mg/kg i.p. every 8 hours, 24 hours after LPS
Description: FIG. 8. […] Mice were challenged with LPS or vehicle via intratracheal administration and treated or not with compound 100 (indicated as “NOX2-I”; 5 mg/kg, 3 injections every 8 hours). (A) Isoprostane, as an indication of ROS production, was measured in lung homogenates 24 hours following LPS challenge by ELISA. (B) Lung histology was performed 24 hours after LPS challenge. (n=3 mice per group). Representative images of histology are shown.
One life-threatening consequence of hemorrhagic shock is acute lung injury (ALI), which is associated with infiltration of neutrophils and release of ROS. A model of LPS-induced ALI was used in mice to test efficacy of the difluoro compound 100 in vivo.
Mice (N=3 per group) were treated with LPS (100 ng in 80 μl PBS) or PBS (vehicle) employing oral-tracheal intubation. Following challenge, the mice were injected i.p. with 5 mg/kg of compound 100, every 8 hours. The relative level of ROS release in the lungs upon LPS challenge was assessed by measuring 8-isoprostane by ELISA in lung tissue homogenates. Isoprostanes are a family of eicosanoids produced by the oxidation of tissue phospholipids by oxygen radicals. The amount of 8-isoprostane generated is thus an indication of ROS production.

dHL-60 cells [3] = assay: DCFDA ROS assay after wash and recovery (affinity assay); format: cell-based, human; details: 2 hr treatment, recovery 4 hr or 2 hr
Description: (§2) (A) Apoptosis analysis by FACS of HL-60 cells treated with compound or vehicle control for 2 hours prior to 7-AAD and Annexin V staining. (B) HL-60 cells from A were harvested and lysates were immunoblotted for levels of pPAK, and actin was used as a control for loading. (C) F-actin reorganization in freshly isolated fMLP-stimulated primary murine neutrophils was analyzed. […] Cells were exposed to a 10 μM dose of Phox-I1, Phox-I2, and Analog 13, and 200 nM nocodazole. (D) The effect of Phox-I on NOX4 mediated ROS production was tested in primary murine neutrophils transfected with a NOX4 expressing plasmid. 10 μM Phox-I1 was applied to the cells for 30 min prior to ROS assay by luminol chemiluminescence in the presence of HRP. The fMLP-stimulated ROS activity in the presence or absence of 10 uM Phox-I1 was measured in parallel. (E) The antioxidant abilities of these lead compounds were tested by prestimulating dHL-60 cells with fMLP for 30 minutes prior to treatment with Phox-I1 or Phox-I2. Levels of superoxide were analyzed by DCFDA assay and FACS. NAC, apocyanin, DPI, and NSC23766 treated cells served as controls. (F) For affinity assay, DMSO-differentiated HL-60 cells were treated with standard effective dose of indicated compound for 2 hours, washed, and allowed to recover in normal media for 4 hours or 2 hours prior to fMLP stimulation and DCFDA ROS production assay by FACS analysis. (G) For stability assay, DMSO-differentiated HL-60 cells were treated with 20 μM dose of compound for the indicated time period prior to fMLP stimulation and DCFDA ROS production assay by FACS analysis.
Next, a stability experiment was performed to determine the duration of effectiveness of the compound in suppressing neutrophils. To analyze the relative affinities of these compounds for the p67^phox target in cells, DCFDA ROS production assays were performed in dHL-60 cells treated with compound for 2 hr followed by wash and recovery for 4 hr or 2 hr in normal media prior to ROS production analysis.

neutrophils = assay: toxicity to neutrophils; format: cell-based, mouse
Pak = assay: immunoblot of phosphorylated Pak; format: cell-based, human; details: 18 hr treatment
Description: Whole-cell lysates were prepared by cell extraction using lysis buffer containing 20 mM Tris-HCl (pH 7.6), 100 mM NaCl, 10 mM MgCl2, 1% Triton X-100, 0.2% sodium deoxycholate, 1 mM phenylmethylsulfonyl fluoride, 10 μg/mL of leupeptin, 1 μg/mL of aprotinin, and 1 mM dithiothreitol for 30 min. Equal amounts of protein, as determined by Bradford assay, were resolved by SDS-PAGE. Specific proteins were detected by standard 9 immunoblotting procedures using the following primary antibodies: (Cell Signaling, 1:500 dilution) phospho-PAK1 (Ser144)/PAK2 (Ser141), (Sigma-Aldrich 1:500) β-Actin.
To analyze the biochemical specificity of these lead inhibitors on the effector pathways of active Rac1, undifferentiated HL-60 cells were treated with Phox-I1, Phox-I2, or NSC23766 for 18 hr. Immunoblot of the cell lysates was performed to probe the activity of Pak, a Rac effector other than p67^phox (FIG. 4B).

[4] = system: undifferentiated HL-60 cells; assay: apoptosis analysis by FACS (Annexin V / 7-AAD); format: cell-based, human; details: 20 or 100 μM
Description: as §1
In order to determine potency and cytotoxicity of Phox-I1 and Phox-I2, the levels of apoptosis were assessed in undifferentiated HL-60 cells treated with 20 or 100 μM Phox-I1, Phox-I2, or NSC23766 by FACS analysis for Annexin V (FIG. 4A).

dHL-60 cells [5] = assay: antioxidant (ROS scavenger) test in dHL-60 cells pre-stimulated with fMLP; format: cell-based, human; details: fMLP 30 min prior to treatment
Description: as §2, with “(F) For affinity assay, DMSO-differentiated HL-60 cells were treated with standard effective dose of indicated compound for 2 hours, washed, and allowed to recover in normal media for 4 hours or 2 hours prior to fMLP stimulation and DCFDA ROS production assay by FACS analysis.” left out
Phox-I1 was then applied to primary murine neutrophils expressing the constitutively active NOX4. […] To further rule out that Phox-I1 and Phox-I2 may simply act as scavengers of ROS, dHL-60 cells were pre-stimulated with fMLP for 30 min prior to treatment with Phox-I1 or Phox-I2.

[6] = system: primary murine neutrophils; assay: F-actin immunofluorescence, polarization upon fMLP stimulation; format: cell-based, mouse; details: 200 nM; control 80%
Description: Cells were pretreated with compound for 40 minutes prior to wash, and resuspended in HBSS with compound. Cells were allowed to adhere to fibronectin (Sigma Aldrich) coated glass coverslips (15 min) and then stimulated with 100 nM fMLP (3 min). Coverslips were then fixed with 3.7% paraformaldehyde (Sigma Aldrich) and then staining for […] was performed with rhodamine phalloidin per the manufacturer's instructions (Molecular Probes). Another method of addressing Rac-signaling specificity in neutrophils is by monitoring their ability to polarize actin to the leading edge upon fMLP stimulation. Neither Phox-I1, Phox-I2, nor an analog 13 (all at 10 μM), were able to block the Rac-mediated dynamic process of F-actin polarization to the leading edge of primary murine neutrophils as observed by F-actin immunofluorescence imaging (FIG. 4C, left panel). F-actin polarization was evident in about 80% of each treatment group of cells as in the control, untreated cells (FIG. 4C, right panel).

Fc1ccc2c(c1)[C@@H]1C=CC[C@@H]1[C@H](c1ccc(Cl)s1)N2 [Compound 103]
ROS inhibition (NBT positive cells) [1]: highest level of ROS inhibition

Fc1cccc(C2Nc3ccc(F)cc3C3C=CCC32)c1 (centres unmarked) [Compound 100]
superoxide inhibition (NBT), Phox-I2 analogs ([1]; FIG. 5C): profound superoxide inhibition | ROS inhibitory activity, Phox-I2 analogs [2]: retain activity | lung histology: neutrophil infiltration, alveoli wall thickness, lung architecture (LPS-induced ALI in mice): attenuated

CC(=O)N[C@@H](CS)C(=O)O [NAC, reference compound]
ROS inhibition after wash (dHL-60 cells [3]): retained the ability to inhibit ROS production

Fc1cccc(C2Nc3ccc(F)cc3C3C=CCCC32)c1 (centres unmarked) [Compound 109]
toxicity to neutrophils (neutrophils): toxic to neutrophils

Fc1cccc([C@@H]2Nc3ccc(Br)cc3[C@@H]3C=CC[C@@H]32)c1 [Compound 102]
ROS inhibition (NBT positive cells) [1]: highest level of ROS inhibition

CCN(CC)CCCC(C)Nc1nc(C)cc(Nc2ccc3nc(C)cc(N)c3c2)n1 (centres unmarked) [NSC23766, reference compound]
phosphorylated Pak levels (Pak): abrogated | cell apoptosis (Annexin V) [4]: no detectable effect on cell apoptosis | ROS inhibition after wash (dHL-60 cells [3]): retained the ability to inhibit ROS production | levels of superoxide already produced (dHL-60 cells [5]): do not affect

COc1cc(C(C)=O)ccc1O [apocyanin]
levels of superoxide already produced (dHL-60 cells [5]): do not affect

Fc1cccc([C@H]2Nc3ccc(F)cc3[C@@H]3OCCC[C@H]23)c1 [Compound 101]
ROS inhibition (NBT positive cells) [1]: highest level of ROS inhibition | ROS inhibition, dose response (NBT) ([1]; 0.1 to 10 μM, FIG. 10): most potent ROS inhibitor

Fc1ccc2c(c1)[C@@H]1C=CC[C@@H]1[C@H](c1cccc(Cl)c1)N2 [Compound 106]
ROS inhibition (NBT positive cells) [1]: highest level of ROS inhibition

c1ccc2c(c1)[I+]c1ccccc1-2 [DPI, diphenyleneiodonium]
levels of superoxide already produced (dHL-60 cells [5]): do not affect

COC(=O)Nc1nc2ccc(C(=O)c3cccs3)cc2[nH]1 [Nocodazole, reference compound]
cells with F-actin polarization [6]: ~20%
